Experimental data published in patent US6355799B1, “Substituted benzene compounds, process for their preparation, and herbicidal and defoliant compositions containing them” (ISK Americas Incorporated, priority 1997, dated 2002).

Legend:
Format in all cases: in vivo
[1] = test system: redroot pigweed (Amaranthus retroflexus, AMARE); assay: Pre-emerge test, greenhouse herbicide activity screening; conditions: for phytotoxicity rating AMARE: pre-emerge, 14 days after application, scale 0-100
Method in brief: (§1)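 Plants grown in 10 cm pots of sandy loam mix received acetone-dissolved compounds through a moving flat-fan nozzle. Doses ranged from 15 to 1000 g ai/ha. Pre-emerge pots were seeded one day earlier, post-emerge pots 8–21 days earlier. Fourteen days on, each pot was graded 0–100 for damage.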

[2] = test system: large crabgrass (Digitaria sanguinalis, DIGSA); assay: as above; conditions: for phytotoxicity rating DIGSA: pre-emerge, 14 days after application, scale 0-100
Method in brief: (§2)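 Rating: 0–100 visual injury, 14 DAA. Application: acetone, 187 l/ha, 15–1000 g ai/ha, flat-fan track sprayer with nozzle 40–45 cm above soil or canopy. Post-emerge runs used 0.25% v/v surfactant on 2–3 leaf plants.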

[3] = test system: lambsquarters (Chenopodium album, CHEAL); assay: as above; conditions: for phytotoxicity rating CHEAL: pre-emerge, 14 days after application, scale 0-100
Method in brief: as §2

[4] = test system: velvetleaf (Abutilon theophrasti, ABUTH); assay: as above; conditions: for phytotoxicity rating ABUTH: pre-emerge, 14 days after application, scale 0-100
Method in brief: as §2

[5] = test system: green foxtail (Setaria viridis, SETVI); assay: as above; conditions: for phytotoxicity rating SETVI: pre-emerge, 14 days after application, scale 0-100
Method in brief: as §2

[6] = test system: ivyleaf morningglory (Ipomoea hederacea, IPOHE); assay: as above; conditions: for phytotoxicity rating IPOHE: pre-emerge, 14 days after application, scale 0-100
Method in brief: as §2

[7] = test system: johnsongrass (Sorghum halepense, SORHA); assay: as above; conditions: for phytotoxicity rating SORHA: pre-emerge, 14 days after application, scale 0-100
Method in brief: as §2

[8] = test system: sicklepod (Cassia obtusifolia, CASOB); assay: as above; conditions: for phytotoxicity rating CASOB: pre-emerge, 14 days after application, scale 0-100
Method in brief: as §2

[9] = test system: barnyardgrass (Echinochloa crus-galli, ECHCG); assay: as above; conditions: for phytotoxicity rating ECHCG: pre-emerge, 14 days after application, scale 0-100
Method in brief: as §2

[10] = test system: field corn (Zea mays L., var. Dekalb 535, CORN); assay: Post-emerge test, crop safety; conditions: post-emerge, 14 days after application, rating scale 0-100
Method in brief: as §1

[11] = test system: upland rice (Oryza sp., var. Tebonnet, RICE); assay: Post-emerge test, crop safety; conditions: post-emerge, 14 days after application, rating scale 0-100
Method in brief: as §1

[12] = test system: field corn (Zea mays L., var. Dekalb 535, CORN); assay: Pre-emerge test, crop safety; conditions: for phytotoxicity rating CORN (crop damage): pre-emerge, 14 days after application, scale 0-100
Method in brief: (§3)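 Fourteen days after spraying, crop and weed injury was graded visually from 0, no effect, to 100, every plant dead. Test substances were dissolved in acetone and applied at 15–1000 g ai/ha with a flat-fan nozzle. Application was either pre-emergence, one day after sowing, or post-emergence at the 2–3 leaf stage.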

[13] = test system: upland rice (Oryza sp., var. Tebonnet, RICE); assay: Pre-emerge test, crop safety; conditions: for phytotoxicity rating RICE (crop damage): pre-emerge, 14 days after application, scale 0-100
Method in brief: as §3

[14] = test system: redroot pigweed (Amaranthus retroflexus, AMARE); assay: Post-emerge test, greenhouse herbicide activity screening; conditions: post-emerge, 14 days after application, rating scale 0-100
Method in brief: (§4)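 Compounds in acetone were track-sprayed at 15-1000 g ai/ha (187 l/ha) on sandy loam pots: pre-emerge one day after seeding, post-emerge at 2-3 leaf stage with 0.25% v/v non-ionic surfactant. Phytotoxicity was rated 14 days later on a 0 (no damage) to 100 (complete death) scale.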

[15] = test system: large crabgrass (Digitaria sanguinalis, DIGSA); assay: as above; conditions: post-emerge, 14 days after application, rating scale 0-100
Method in brief: as §4

[16] = test system: lambsquarters (Chenopodium album, CHEAL); assay: as above; conditions: post-emerge, 14 days after application, rating scale 0-100
Method in brief: as §4

[17] = test system: velvetleaf (Abutilon theophrasti, ABUTH); assay: as above; conditions: post-emerge, 14 days after application, rating scale 0-100
Method in brief: as §4

[18] = test system: green foxtail (Setaria viridis, SETVI); assay: as above; conditions: post-emerge, 14 days after application, rating scale 0-100
Method in brief: as §4

[19] = test system: ivyleaf morningglory (Ipomoea hederacea, IPOHE); assay: as above; conditions: post-emerge, 14 days after application, rating scale 0-100
Method in brief: as §4

[20] = test system: sicklepod (Cassia obtusifolia, CASOB); assay: as above; conditions: post-emerge, 14 days after application, rating scale 0-100
Method in brief: as §4

[21] = test system: barnyardgrass (Echinochloa crus-galli, ECHCG); assay: as above; conditions: post-emerge, 14 days after application, rating scale 0-100
Method in brief: as §4

[22] = 250 g ai/ha, phytotoxicity rating 0-100, 14 days after application
[23] = 250 g ai/ha, crop damage rating 0-100, 14 days after application

Compound: COc1c(Cl)cc(F)c(-n2c(=O)cc(C(F)(F)F)n(N)c2=O)c1NC(=O)C=Cc1ccccc1 [2-185]
- phytotoxicity rating AMARE ([1]; 63 g ai/ha): 100
- phytotoxicity rating AMARE ([1]; 250 g ai/ha): 100
- phytotoxicity rating DIGSA ([2]; 63 g ai/ha): 20
- phytotoxicity rating DIGSA ([2]; 250 g ai/ha): 40
- phytotoxicity rating CHEAL ([3]; 63 g ai/ha): 100
- phytotoxicity rating CHEAL ([3]; 250 g ai/ha): 100
- phytotoxicity rating ABUTH ([4]; 63 g ai/ha): 90
- phytotoxicity rating ABUTH ([4]; 250 g ai/ha): 100
- phytotoxicity rating SETVI ([5]; 63 g ai/ha): 30
- phytotoxicity rating SETVI ([5]; 250 g ai/ha): 50
- phytotoxicity rating IPOHE ([6]; 63 g ai/ha): 60
- phytotoxicity rating IPOHE ([6]; 250 g ai/ha): 60
- phytotoxicity rating SORHA ([7]; 63 g ai/ha): 20
- phytotoxicity rating SORHA ([7]; 250 g ai/ha): 20
- phytotoxicity rating CASOB ([8]; 63 g ai/ha): 0
- phytotoxicity rating CASOB ([8]; 250 g ai/ha): 60
- phytotoxicity rating ECHCG ([9]; 63 g ai/ha): 10
- phytotoxicity rating ECHCG ([9]; 250 g ai/ha): 10
- CORN phytotoxicity rating (crop damage) ([10]; 63 g ai/ha): 0
- CORN phytotoxicity rating (crop damage) ([10]; 250 g ai/ha): 5
- RICE phytotoxicity rating (crop damage) ([11]; 63 g ai/ha): 20
- RICE phytotoxicity rating (crop damage) ([11]; 250 g ai/ha): 35
- phytotoxicity rating CORN (crop damage) ([12]; 63 g ai/ha): 0
- phytotoxicity rating CORN (crop damage) ([12]; 250 g ai/ha): 5
- phytotoxicity rating RICE (crop damage) ([13]; 63 g ai/ha): 20
- phytotoxicity rating RICE (crop damage) ([13]; 250 g ai/ha): 40
- AMARE phytotoxicity rating ([14]; 63 g ai/ha): 80
- AMARE phytotoxicity rating ([14]; 250 g ai/ha): 100
- DIGSA phytotoxicity rating ([15]; 63 g ai/ha): 0
- DIGSA phytotoxicity rating ([15]; 250 g ai/ha): 10
- CHEAL phytotoxicity rating ([16]; 63 g ai/ha): 70
- CHEAL phytotoxicity rating ([16]; 250 g ai/ha): 100
- ABUTH phytotoxicity rating ([17]; 63 g ai/ha): 100
- ABUTH phytotoxicity rating ([17]; 250 g ai/ha): 100
- SETVI phytotoxicity rating ([18]; 63 g ai/ha): 0
- SETVI phytotoxicity rating ([18]; 250 g ai/ha): 20
- IPOHE phytotoxicity rating ([19]; 63 g ai/ha): 60
- IPOHE phytotoxicity rating ([19]; 250 g ai/ha): 80
- CASOB phytotoxicity rating ([20]; 63 g ai/ha): 40
- CASOB phytotoxicity rating ([20]; 250 g ai/ha): 60
- ECHCG phytotoxicity rating ([21]; 63 g ai/ha): 0
- ECHCG phytotoxicity rating ([21]; 250 g ai/ha): 0

Compound: N#CCOc1c(Cl)cc(F)c(-n2c(=O)cc(C(F)(F)F)n(N)c2=O)c1NC(=O)c1ccc2ccccc2c1 [2-188]
- Pre-emerge Herbicidal Activity AMARE [1, 22]: 80
- phytotoxicity rating AMARE ([1]; 63 g ai/ha): 100
- Pre-emerge Herbicidal Activity DIGSA [2, 22]: 60
- phytotoxicity rating DIGSA ([2]; 63 g ai/ha): 10
- Pre-emerge Herbicidal Activity CHEAL [3, 22]: 100
- phytotoxicity rating CHEAL ([3]; 63 g ai/ha): 100
- Pre-emerge Herbicidal Activity ABUTH [4, 22]: 100
- phytotoxicity rating ABUTH ([4]; 63 g ai/ha): 90
- Pre-emerge Herbicidal Activity SETVI [5, 22]: 50
- phytotoxicity rating SETVI ([5]; 63 g ai/ha): 30
- Pre-emerge Herbicidal Activity IPOHE [6, 22]: 90
- phytotoxicity rating IPOHE ([6]; 63 g ai/ha): 10
- Pre-emerge Herbicidal Activity SORHA [7, 22]: 30
- phytotoxicity rating SORHA ([7]; 63 g ai/ha): 10
- Pre-emerge Herbicidal Activity CASOB [8, 22]: 0
- phytotoxicity rating CASOB ([8]; 63 g ai/ha): 0
- Pre-emerge Herbicidal Activity ECHCG [9, 22]: 60
- phytotoxicity rating ECHCG ([9]; 63 g ai/ha): 30
- CORN phytotoxicity rating (crop damage) ([10]; 63 g ai/ha): 25
- CORN phytotoxicity rating (crop damage) ([10]; 250 g ai/ha): 45
- RICE phytotoxicity rating (crop damage) ([11]; 63 g ai/ha): 20
- RICE phytotoxicity rating (crop damage) ([11]; 250 g ai/ha): 40
- Pre-emerge Herbicidal Activity CORN [12, 23]: 0
- phytotoxicity rating CORN (crop damage) ([12]; 63 g ai/ha): 0
- Pre-emerge Herbicidal Activity RICE [13, 23]: 10
- phytotoxicity rating RICE (crop damage) ([13]; 63 g ai/ha): 10
- AMARE phytotoxicity rating ([14]; 63 g ai/ha): 85
- AMARE phytotoxicity rating ([14]; 250 g ai/ha): 90
- DIGSA phytotoxicity rating ([15]; 63 g ai/ha): 0
- DIGSA phytotoxicity rating ([15]; 250 g ai/ha): 10
- CHEAL phytotoxicity rating ([16]; 63 g ai/ha): 80
- CHEAL phytotoxicity rating ([16]; 250 g ai/ha): 100
- ABUTH phytotoxicity rating ([17]; 63 g ai/ha): 100
- ABUTH phytotoxicity rating ([17]; 250 g ai/ha): 100
- SETVI phytotoxicity rating ([18]; 63 g ai/ha): 10
- SETVI phytotoxicity rating ([18]; 250 g ai/ha): 20
- IPOHE phytotoxicity rating ([19]; 63 g ai/ha): 100
- IPOHE phytotoxicity rating ([19]; 250 g ai/ha): 100
- CASOB phytotoxicity rating ([20]; 63 g ai/ha): 55
- CASOB phytotoxicity rating ([20]; 250 g ai/ha): 90
- ECHCG phytotoxicity rating ([21]; 63 g ai/ha): 30
- ECHCG phytotoxicity rating ([21]; 250 g ai/ha): 40
